In US8648066B2 (Exelixis, Inc., priority 2009, dated 2014):

Target: mTOR/GbL/Raptor (mTORC1) (Homo sapiens, UniProt P42345)
Experiment: mTOR/GbL/Raptor (mTORC1) ELISA assay
Format: biochemical
Conditions: phosphorylation of 4E-BP1; 0.2 nM mTORC1, 10 μM ATP; read-out: IC50 in this assay (mTORC1 ELISA)
How it was run: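 ELISA read-out: phospho-4E-BP1 captured on Ni-chelate plates and detected with anti-phospho antibody plus HRP-anti-IgG luminescence. The kinase step ran 120 min at ambient temperature with 0.2 nM human mTORC1, 10 µM ATP, 50 nM His-4E-BP1, 10 mM MnCl2, pH 7.2 HEPES.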

Row | Structure (SMILES) | IC50 [nM]
1 | CC1(C)CCc2ncnc(N3CCOc4ccc(-c5ccc(Cl)c(NS(C)(=O)=O)c5)cc4C3)c2C1 [Example 621] | 250 to 1000
2 | CC1(C)CCc2ncnc(N3CCOc4ccc(-c5ccc6nc(NCCF)[nH]c6c5)cc4C3)c2C1 [Example 215, 6-[4-(6,6-dimethyl-5,6,7,8-tetrahydroquinazolin-4-yl)-2,3,4,5-tetrahydro-1,4-benzoxazepin-7-yl]-N-(2-fluoroethyl)-1H-benzimidazol-2-amine] | ≤ 10
3 | CC1=C(C)C(C)(C)Cc2c1ncnc2N1CCOc2ccc(-c3cnc4nc(C)[nH]c4c3)cc2C1 [Example 552, 7-(2-methyl-1H-imidazo[4,5-b]pyridin-6-yl)-4-(6,6,7,8-tetramethyl-5,6-dihydroquinazolin-4-yl)-2,3,4,5-tetrahydro-1,4-benzoxazepine] | ≤ 10
4 | Cc1nc2ncc(-c3ccc4c(c3)CN(c3nc(CNC5CC5)nc5c3CC(C)(C)CC5)CCO4)cc2[nH]1 [Example 599, N-({6,6-dimethyl-4-[7-(2-methyl-1H-imidazo[4,5-b]pyridin-6-yl)-2,3-dihydro-1,4-benzoxazepin-4(5H)-yl]-5,6,7,8-tetrahydroquinazolin-2-yl}methyl)cyclopropanamine] | ≤ 10
5 | COc1ccc(-c2ccc3c(c2)CN(c2nc(CN(C)C)nc4c2CC(C)(C)CC4)CCO3)cn1 [Example 330, 1-(6,6-dimethyl-4-{7-[6-(methyloxy)pyridin-3-yl]-2,3-dihydro-1,4-benzoxazepin-4(5H)-yl}-5,6,7,8-tetrahydroquinazolin-2-yl)-N,N-dimethylmethanamine] | 250 to 1000
6 | Nc1nc2ccc(-c3ccc4c(c3)CN(c3nc(-c5ccccc5)nc5ccccc35)CCO4)cc2[nH]1 [Example 233, 6-[4-(2-phenylquinazolin-4-yl)-2,3,4,5-tetrahydro-1,4-benzoxazepin-7-yl]-1H-benzimidazol-2-amine] | 50 to 250
7 | Cc1nc2ncc(-c3ccc4c(c3)CN(c3nc(CN)nc5c3CC(C)(C)CC5)CCO4)cc2[nH]1 [Example 352, 1-{6,6-dimethyl-4-[7-(2-methyl-1H-imidazo[4,5-b]pyridin-6-yl)-2,3-dihydro-1,4-benzoxazepin-4(5H)-yl]-5,6,7,8-tetrahydroquinazolin-2-yl}methanamine] | ≤ 10
8 | COc1ccc2c(N3CCOc4ccc(-c5ccc(-c6nc7ccccc7[nH]6)cc5)cc4C3)nc(C)nc2c1 [Example 240, 7-[4-(1H-benzimidazol-2-yl)phenyl]-4-[2-methyl-7-(methyloxy)quinoazlin-4-yl]-2,3,4,5-tetrahydro-1,4-benzoxazepine] | ≥ 2000
9 | COc1ccc2c(N3CCOc4ccc(-c5cnc6nc(C)[nH]c6c5)cc4C3)nc(CN(C)C)nc2c1 [Example 613, N,N-dimethyl-1-{4-[7-(2-methyl-1H-imidazo[4,5-b]pyridin-6-yl)-2,3-dihydro-1,4-benzoxazepin-4(5H)-yl]-7-(methyloxy)quinazolin-2-yl}methanamine] | 250 to 1000
10 | Cc1nc2c(c(N3CCOc4ccc(-c5cnc6nc(C)[nH]c6c5)cc4C3)n1)CC(C)(C)CC2 [Example 550, 7-(2-methyl-1H-imidazo[4,5-b]pyridin-6-yl)-4-(2,6,6-trimethyl-5,6,7,8-tetrahydroquinazolin-4-yl)-2,3,4,5-tetrahydro-1,4-benzoxazepine] | ≤ 10
11 | Cc1nc(N2CCOc3ccc(-c4ccc(-c5ncc[nH]5)cc4)cc3C2)c2ccccc2n1 [Example 251, 7-[4-(1H-imidazol-2-yl)phenyl]-4-(2-methylquinazolin-4-yl)-2,3,4,5-tetrahydro-1,4-benzoxazepine] | 10 to 50
12 | CCCc1c(C)nc(CN(C)C)nc1N1CCOc2ccc(-c3ccc4nc(C)[nH]c4c3)cc2C1 [Example 653, N,N-dimethyl-1-{4-methyl-6-[7-(2-methyl-1H-benzimidazol-6-yl)-2,3-dihydro-1,4-benzoxazepin-4(5H)-yl]-5-propylpyrimidin-2-yl}methanamine] | 250 to 1000
13 | COc1ccc2c(N3CCOc4ccc(-c5ccc6c(c5)CC(=O)N6)cc4C3)nc(C)nc2c1 [Example 524, 5-{4-[2-methyl-7-(methyloxy)quinazolin-4-yl]-2,3,4,5-tetrahydro-1,4-benzoxazepin-7-yl}-1,3-dihydro-2H-indol-2-one] | 1000 to 2000
14 | CN(C)Cc1nc2c(c(N3CCOc4ccc(-c5ccc(-c6ncc[nH]6)cc5)cc4C3)n1)CC(C)(C)CC2 [Example 325] | ≤ 10
15 | CCNc1nc2ccc(-c3ccc4c(c3)CN(c3ncnc5c3CC(C)(C)CC5)CCO4)cc2[nH]1 [Example 255, 6-[4-(6,6-dimethyl-5,6,7,8-tetrahydroquinazolin-4-yl)-2,3,4,5-tetrahydro-1,4-benzoxazepin-7-yl]-N-ethyl-1H-benzimidazol-2-amine] | ≤ 10
16 | Cc1nc2cc(-c3ccc4c(c3)CN(c3nc([C@H]5CCCN5)nc5c3CC(C)(C)CC5)CCO4)ccc2[nH]1 [Example 505, 4-{6,6-dimethyl-2-[(2R)-pyrrolidin-2-yl]-5,6,7,8-tetrahydroquinazolin-4-yl}-7-(2-methyl-1H-benzimidazol-5-yl)-2,3,4,5-tetrahydro-1,4-benzoxazepine] | 10 to 50
17 | COCC1CCc2c(ncnc2N2CCOc3ccc(-c4cnc5nc(C)[nH]c5c4)cc3C2)C1 (centres unmarked) [Example 567, 7-(2-methyl-1H-imidazo[4,5-b]pyridin-6-yl)-4-{7-[(methyloxy)methyl]-5,6,7,8-tetrahydrquinazolin-4-yl}-2,3,4,5-tetrahydro-1,4-benzoxazepine] | 50 to 250
18 | CC1(C)CCc2ncnc(N3CCOc4ccc(-c5cnc(N)c(S(=O)(=O)NCC(F)(F)F)c5)cc4C3)c2C1 [Example 365, 2-amino-5-[4-(6,6-dimethyl-5,6,7,8-tetrahydroquinazolin-4-yl)-2,3,4,5-tetrahydro-1,4-benzoxazepin-7-yl]-N-(2,2,2-trifluoroethyl)pyridine-3-sulfonamide] | 10 to 50
19 | COC(=O)Nc1nc2ccc(-c3ccc4c(c3)CN(c3ccnc5ccccc35)CCO4)cc2[nH]1 [Example 114, methyl [6-(4-quinolin-4-yl-2,3,4,5-tetrahydro-1,4-benzoxazepin-7-yl)-1H-benzimidazol-2-yl]carbamate] | 250 to 1000
20 | COc1c(OCc2ccccc2)ccc2c(N3CCOc4ccc(-c5ccc6nc(C)[nH]c6c5)cc4C3)ncnc12 [Example 39, 7-(2-methyl-1H-benzimidazol-6-yl)-4-{8-(methyloxy)-7-[(phenylmethyl)oxy]quinazolin-4-yl}-2,3,4,5-tetrahydro-1,4-benzoxazepine] | 50 to 250
21 | Cc1nc2ncc(-c3ccc4c(c3)CN(c3ncnc5c3CCC(C)(C)C5)CCO4)cc2[nH]1 [Example 484, 4-(7,7-dimethyl-5,6,7,8-tetrahydroquinazolin-4-yl)-7-(2-methyl-1H-imidazo[4,5-b]pyridin-6-yl)-2,3,4,5-tetrahydro-1,4-benzoxazepine] | ≤ 10
22 | Cc1nc2ccc(-c3ccc4c(c3)CN(c3ccnc(N)n3)CCO4)cc2[nH]1 [Example 96, 4-[7-(2-methyl-1H-benzimidazol-6-yl)-2,3-dihydro-1,4-benzoxazepin-4(5H)-yl]pyrimidin-2-amine] | 250 to 1000
23 | Cc1nc2ccc(-c3ccc4c(c3)CN(c3ncnc5cc(S(C)(=O)=O)ccc35)CCO4)cc2[nH]1 [Example 40, 7-(2-methyl-1H-benzimidazol-6-yl)-4-[7-(methylsulfonyl)quinazolin-4-yl]-2,3,4,5-tetrahydro-1,4-benzoxazepine] | 50 to 250
